7 compounds from patent US10710980B2, “Aminopyridine derivatives and their use as selective ALK-2 inhibitors” (priority 2016, dated 2020) can be followed below.

One may read the IC50 as the concentration needed to halve the response being measured.

The target of experiment [1] is T1, wild-type ALK2 (aa172-499) (Homo sapiens (Human), UniProt Q04771). Briefly: ADPGlo biochemical autophosphorylation assay, ALK2. Particulars: 15 μm ATP, 60 min at 32° C. (In general: ADP-Glo turns the ADP formed in a reaction into a luminescent signal.)
T1 sequence (Q04771 172-499): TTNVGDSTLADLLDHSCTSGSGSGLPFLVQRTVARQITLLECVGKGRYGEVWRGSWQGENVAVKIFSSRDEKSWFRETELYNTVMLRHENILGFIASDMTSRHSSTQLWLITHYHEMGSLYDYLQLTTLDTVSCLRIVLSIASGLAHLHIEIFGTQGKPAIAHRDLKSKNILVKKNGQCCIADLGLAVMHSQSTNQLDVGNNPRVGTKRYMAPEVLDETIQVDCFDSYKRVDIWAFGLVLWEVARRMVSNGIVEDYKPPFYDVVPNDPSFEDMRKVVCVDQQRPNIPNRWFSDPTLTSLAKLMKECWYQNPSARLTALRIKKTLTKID
A further experiment concerns the target ALK3 (aa198-525) (Homo sapiens (Human), UniProt P36894). Briefly: ADPGlo biochemical autophosphorylation assay, ALK3. The settings on record: 15 μm ATP, 60 min at 32° C.
Experiment [2] has as its target T1, wild-type ALK2 (aa172-499). Briefly: Caliper biochemical peptide phosphorylation assay, ALK2. The settings on record: 15 μm ATP, 60 min at 30° C.; read-out: ALK2 EPK (IC50).
The target of another experiment is ALK1 (aa166-493) (Homo sapiens (Human), UniProt P37023). Briefly: Caliper biochemical peptide phosphorylation assay, ALK1. Particulars: 15 μm ATP, 60 min at 30° C.; read-out: ALK1 EPK (IC50).
ALK1 (aa166-493), sequence (P37023 166-493): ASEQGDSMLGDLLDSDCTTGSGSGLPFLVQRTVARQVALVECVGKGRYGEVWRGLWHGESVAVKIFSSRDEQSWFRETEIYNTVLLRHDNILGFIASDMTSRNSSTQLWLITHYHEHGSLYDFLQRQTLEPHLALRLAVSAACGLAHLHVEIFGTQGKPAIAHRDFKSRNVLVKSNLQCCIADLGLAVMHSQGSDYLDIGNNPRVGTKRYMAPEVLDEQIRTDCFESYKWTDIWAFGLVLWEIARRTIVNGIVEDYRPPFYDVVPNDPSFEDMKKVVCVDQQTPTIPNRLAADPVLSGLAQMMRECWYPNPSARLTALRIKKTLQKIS
In another experiment the target is ALK5 (aa162-503) (Homo sapiens (Human), UniProt P36897). Briefly: Caliper biochemical peptide phosphorylation assay, ALK5. The settings on record: 15 μm ATP, 60 min at 30° C.; read-out: ALK5 EPK (IC50).
ALK5 (aa162-503), sequence (P36897 162-503): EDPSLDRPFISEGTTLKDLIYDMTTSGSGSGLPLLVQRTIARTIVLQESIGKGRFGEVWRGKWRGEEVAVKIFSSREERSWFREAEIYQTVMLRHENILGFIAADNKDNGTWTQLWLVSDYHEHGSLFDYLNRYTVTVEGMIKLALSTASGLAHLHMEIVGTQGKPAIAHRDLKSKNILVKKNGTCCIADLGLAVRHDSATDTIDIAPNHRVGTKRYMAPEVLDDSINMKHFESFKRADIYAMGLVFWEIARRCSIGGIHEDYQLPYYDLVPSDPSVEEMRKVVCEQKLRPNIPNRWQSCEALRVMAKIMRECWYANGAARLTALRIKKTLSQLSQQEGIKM
For the next experiment, the target named is ALK6 (aa168-495) (Homo sapiens (Human), UniProt O00238). Briefly: Caliper biochemical peptide phosphorylation assay, ALK6. Particulars: 15 μm ATP, 60 min at 30° C.; read-out: ALK6 EPK (IC50).
ALK6 (aa168-495), sequence (O00238 168-495): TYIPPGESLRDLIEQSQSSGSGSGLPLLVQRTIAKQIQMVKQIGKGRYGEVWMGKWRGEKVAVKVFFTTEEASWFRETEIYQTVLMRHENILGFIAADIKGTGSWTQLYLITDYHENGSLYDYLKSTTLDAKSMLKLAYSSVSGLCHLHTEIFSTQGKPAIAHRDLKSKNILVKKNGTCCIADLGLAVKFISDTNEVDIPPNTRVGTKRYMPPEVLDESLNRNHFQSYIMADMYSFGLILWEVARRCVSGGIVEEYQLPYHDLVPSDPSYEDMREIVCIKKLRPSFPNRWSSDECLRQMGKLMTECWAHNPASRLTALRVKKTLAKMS
The subject of experiment [3] is BMP response element (BRE) luciferase reporter in HuH7 cells, BMP6 stimulated. Briefly: BMP signaling reporter gene assay. The settings on record: Homo sapiens, Huh-7; HuH7 BRE-luciferase, BMP6 100 ng/ml, 5 hours; read-out: MSD BMP RGA IC50. In kind it is cell-based. In general terms: In a reporter assay the amount or activity of a reporter protein is the signal.

ALK3 (aa198-525), sequence (P36894 198-525): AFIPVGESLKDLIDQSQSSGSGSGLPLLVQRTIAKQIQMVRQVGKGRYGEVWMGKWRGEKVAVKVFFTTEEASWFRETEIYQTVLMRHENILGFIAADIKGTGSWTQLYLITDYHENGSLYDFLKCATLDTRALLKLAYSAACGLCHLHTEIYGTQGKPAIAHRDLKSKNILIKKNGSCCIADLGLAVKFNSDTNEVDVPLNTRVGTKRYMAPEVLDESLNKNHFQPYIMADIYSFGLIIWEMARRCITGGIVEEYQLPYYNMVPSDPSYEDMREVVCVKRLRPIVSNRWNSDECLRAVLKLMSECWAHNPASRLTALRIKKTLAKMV

In the case of `Nc1ncc(-c2ccc([C@@]34C[C@@H]3CN(CCOCC(F)(F)F)C4)cc2)cc1C(=O)N[C@H]1CC[C@H](O)CC1` [Example 41, 2-amino-N-((1r,4R)-4-hydroxycyclohexyl)-5-(4-((1R,5S)-3-(2-(2,2,2-trifluoroethoxy)ethyl)-3-azabicyclo[3.1.0]hexan-1-yl)phenyl)nicotinamide], the IC50 in experiment [1] came to 19 nM; at ALK3 (aa198-525) it was 1800 nM; in experiment [2] it was 23 nM; on ALK1 (aa166-493), 310 nM; on ALK5 (aa162-503), 6700 nM; at ALK6 (aa168-495), 6900 nM. Also, in experiment [3], the IC50 turned out to be 158 nM.

For `CN1CCN(C(=O)c2ccc(-c3cnc(N)c(C(=O)NC4CCCCC4)c3)cc2)CC1` [Example 45, 2-amino-N-cyclohexyl-5-(4-(4-methylpiperazine-1-carbonyl)phenyl)nicotinamide], the IC50 was determined as 20 nM in experiment [1]; 1600 nM against ALK3 (aa198-525); 25 nM in experiment [2]; 750 nM on ALK1 (aa166-493); 2700 nM on ALK5 (aa162-503); 4800 nM on ALK6 (aa168-495). Besides, the IC50 in experiment [3] was determined as 365 nM.

In the case of `[2H][C@]1(O)CC[C@H](NC(=O)c2cc(-c3ccc([C@]45C[C@H]4CN(C(C)C)C5)cc3)cnc2N)CC1` [Example 78, 2-amino-N-((1r,4S)-4-hydroxycyclohexyl-4-d)-5-(4-((1S,5R)-3-isopropyl-3-azabicyclo[3.1.0]hexan-1-yl)phenyl)nicotinamide], the IC50 came out at 37 nM in experiment [1]; 8300 nM against ALK3 (aa198-525); 109 nM in experiment [2]; 310 nM on ALK1 (aa166-493); 7800 nM at ALK5 (aa162-503); 10000 nM at ALK6 (aa168-495). Further, the IC50 in experiment [3] was determined as 220 nM.

For `Nc1ncc(-c2ccc(C(=O)N3CCOCC3)cc2)cc1C(=O)NC1CCCCC1` [Example 69, 2-amino-N-cyclohexyl-5-(4-(morpholine-4-carbonyl)phenyl)nicotinamide], the IC50 was found to be 41 nM in experiment [1]; 3100 nM on ALK3 (aa198-525); 52 nM in experiment [2]; 1100 nM at ALK1 (aa166-493); 5200 nM on ALK5 (aa162-503); 9000 nM at ALK6 (aa168-495). In addition, in experiment [3], the IC50 is 1100 nM.

On to `Nc1ncc(-c2cccc(C(=O)N3CCN(CCO)CC3)c2)cc1C(=O)NC1CCCCC1` [Example 88, 2-amino-N-cyclohexyl-5-(3-(4-(2-hydroxyethyl)piperazine-1-carbonyl)phenyl)nicotinamide], for which the 50% inhibitory concentration (IC50) in experiment [1] was determined as 990 nM; at ALK3 (aa198-525), 22800 nM; in experiment [2], 810 nM; on ALK1 (aa166-493), 20200 nM; at ALK5 (aa162-503) it was 20200 nM; at ALK6 (aa168-495), 20200 nM. The IC50 in experiment [3] was 9300 nM.

For the compound `CN1CCN(CCNC(=O)c2ccc(-c3cnc(N)c(C(=O)NC4CCCCC4)c3)cc2)CC1` [Example 65, 2-amino-N-cyclohexyl-5-(4-((2-(4-methylpiperazin-1-yl)ethyl)carbamoyl)phenyl)nicotinamide], the IC50 in experiment [1] was 82 nM; at ALK3 (aa198-525), 2400 nM; in experiment [2] it was 44 nM; at ALK1 (aa166-493), 580 nM; at ALK5 (aa162-503) it was 1700 nM; on ALK6 (aa168-495), 10000 nM. The IC50 in experiment [3] came out at 415 nM.

With `Nc1ncc(-c2ccc([C@@]34C[C@@H]3CN(CC(F)(F)F)C4)cc2)cc1C(=O)N[C@H]1CC[C@H](O)CC1` [Example 77, 2-amino-N-((1r,4R)-4-hydroxycyclohexyl)-5-(4-((1R,5S)-3-(2,2,2-trifluoroethyl)-3-azabicyclo[3.1.0]hexan-1-yl)phenyl)nicotinamide], the IC50 in experiment [1] came to 28 nM; against ALK3 (aa198-525), 3300 nM; in experiment [2] it was 80 nM; on ALK1 (aa166-493), 320 nM; at ALK5 (aa162-503) it was 10000 nM; at ALK6 (aa168-495) it was 8600 nM. Also, the IC50 in experiment [3] amounted to 1300 nM.
